Results taken from PubChem BioAssay (NCI).
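All cell lines were grown in 96-well plates and treated with compound for 48 hours. GI50 marks 50% less growth. TGI denotes the concentration required for complete inhibition of growth.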

Experiments:
Test in all cases: DTP human tumour cell line panel, 48 h
[1] = test system: MDA-MB-231 breast
[2] = test system: NCI-H460 lung
[3] = test system: SK-MEL-5 melanoma
[4] = test system: TK-10 renal
[5] = test system: LOX IMVI melanoma
[6] = test system: HOP-62 NSCLC
[7] = test system: HT29 colon
[8] = test system: HCT-15 colon
[9] = test system: NCI-H522 lung
[10] = test system: NCI-H226 lung
[11] = test system: RXF 393 renal
[12] = test system: K-562 leukemia
[13] = test system: MALME-3M melanoma
[14] = test system: OVCAR-3 ovarian
[15] = test system: HCT-116 colon
[16] = test system: NCI/ADR-RES ovarian
[17] = test system: SR leukemia
[18] = test system: BT-549 breast
[19] = test system: 786-0 renal
[20] = test system: CCRF-CEM leukemia
[21] = test system: DU-145 prostate
[22] = test system: HS 578T breast
[23] = test system: SK-MEL-2 melanoma
[24] = test system: ACHN renal
[25] = test system: MCF7 breast
[26] = test system: SF-268 CNS
[27] = test system: KM12 colon
[28] = test system: MOLT-4 leukemia
[29] = test system: UACC-62 melanoma
[30] = test system: HCC-2998 colon
[31] = test system: PC-3 prostate
[32] = test system: OVCAR-4 ovarian
[33] = test system: A549 NSCLC
[34] = test system: HOP-92 NSCLC
[35] = test system: UACC-257 melanoma
[36] = test system: M14 melanoma
[37] = test system: SW-620 colon
[38] = test system: SK-OV-3 ovarian
[39] = test system: SF-539 CNS
[40] = test system: NCI-H23 lung
[41] = test system: HL-60(TB) leukemia
[42] = test system: OVCAR-5 ovarian
[43] = test system: RPMI-8226 leukemia
[44] = test system: IGROV1 ovarian
[45] = test system: SNB-19 CNS
[46] = test system: OVCAR-8 ovarian
[47] = test system: MDA-MB-435
[48] = test system: UO-31 renal
[49] = test system: SF-295 CNS
[50] = test system: CAKI-1 renal
[51] = test system: SNB-75 CNS
[52] = test system: SN12C renal
[53] = test system: A498 renal
[54] = test system: U251 CNS
[55] = test system: COLO 205 colon
[56] = test system: T-47D breast
[57] = test system: EKVX NSCLC
[58] = test system: SK-MEL-28 melanoma

## COc1ccc2c(c1)N(CCO)C1=C(C(=O)OC1)C2c1cc(OC)c(OC)c(OC)c1 (centres undefined)
[1]
  GI50: 0.055 µM
  TGI: 0.246 µM
[2]
  GI50: 0.0196 µM
  TGI: > 50 µM
[3]
  GI50: 0.0171 µM
  TGI: 0.0714 µM
[4]
  GI50: 0.0264 µM
  TGI: > 50 µM
[5]
  GI50: 0.0258 µM
  TGI: > 50 µM
[6]
  GI50: 0.0265 µM
  TGI: > 50 µM
[7]
  GI50: 0.0141 µM
  TGI: 0.0389 µM
[8]
  GI50: 0.0622 µM
  TGI: > 50 µM
[9]
  GI50: 0.0109 µM
  TGI: 0.0286 µM
[10]
  GI50: 0.0228 µM
  TGI: > 50 µM
[11]
  GI50: 0.0128 µM
  TGI: > 50 µM
[12]
  GI50: 0.0196 µM
  TGI: > 50 µM
[13]
  GI50: 0.0287 µM
  TGI: > 50 µM
[14]
  GI50: 0.0133 µM
  TGI: 0.0322 µM
[15]
  GI50: 0.0174 µM
[16]
  GI50: 0.0787 µM
  TGI: 2.7 µM
[17]
  GI50: 0.0252 µM
  TGI: > 50 µM
[18]
  GI50: 0.0919 µM
  TGI: > 50 µM
[19]
  GI50: 0.0679 µM
  TGI: > 50 µM
[20]
  GI50: 0.0231 µM
  TGI: > 50 µM
[21]
  GI50: 0.0261 µM
  TGI: 0.188 µM
[22]
  GI50: 0.0279 µM
  TGI: > 50 µM
[23]
  GI50: 0.0267 µM
  TGI: 18.3 µM
[24]
  GI50: 0.0549 µM
  TGI: > 50 µM
[25]
  GI50: 0.0195 µM
  TGI: > 50 µM
[26]
  GI50: 0.033 µM
  TGI: > 50 µM
[27]
  GI50: 0.0178 µM
[28]
  GI50: 0.0938 µM
  TGI: > 50 µM
[29]
  GI50: 0.0208 µM
  TGI: > 50 µM
[30]
  GI50: 0.0639 µM
  TGI: > 50 µM
[31]
  GI50: 0.0247 µM
  TGI: > 50 µM
[32]
  GI50: 0.031 µM
  TGI: > 50 µM
[33]
  GI50: 0.0266 µM
  TGI: > 50 µM
[34]
  GI50: 0.0861 µM
  TGI: > 50 µM
[35]
  GI50: 0.0226 µM
  TGI: > 50 µM
[36]
  GI50: 0.0213 µM
  TGI: > 50 µM
[37]
  GI50: 0.0196 µM
  TGI: > 50 µM
[38]
  GI50: 0.0231 µM
  TGI: > 50 µM
[39]
  GI50: 0.0176 µM
  TGI: > 50 µM
[40]
  GI50: 0.0281 µM
  TGI: > 50 µM
[41]
  GI50: 0.015 µM
[42]
  GI50: 0.0614 µM
  TGI: > 50 µM
[43]
  GI50: 0.0287 µM
  TGI: > 50 µM
[44]
  GI50: 0.0362 µM
  TGI: > 50 µM
[45]
  GI50: 0.0429 µM
  TGI: > 50 µM
[46]
  GI50: 0.0199 µM
  TGI: 0.181 µM
[47]
  GI50: < 0.0108 µM
  TGI: 0.0272 µM
[48]
  GI50: 0.183 µM
  TGI: > 50 µM
[49]
  GI50: 0.014 µM
  TGI: > 50 µM
[50]
  GI50: 0.0852 µM
  TGI: > 50 µM
[51]
  GI50: 0.0198 µM
  TGI: > 50 µM
[52]
  GI50: 0.0609 µM
  TGI: > 50 µM
[53]
  GI50: 0.0147 µM
  TGI: 0.0616 µM
[54]
  GI50: 0.0165 µM
  TGI: > 50 µM
[55]
  GI50: 0.015 µM
  TGI: 0.038 µM

## CN(C)c1ccc(-c2[nH]c(=O)c3ccccc3[n+]2C)cc1
[1]
  TGI: > 100 µM
[2]
  TGI: > 100 µM
[3]
  TGI: > 100 µM
[4]
  TGI: > 100 µM
[6]
  TGI: > 100 µM
[7]
  TGI: > 100 µM
[8]
  TGI: > 100 µM
[10]
  TGI: > 100 µM
[11]
  TGI: > 100 µM
[12]
  TGI: > 100 µM
[13]
  TGI: > 100 µM
[15]
  TGI: > 100 µM
[16]
  TGI: > 100 µM
[17]
  TGI: > 100 µM
[19]
  TGI: > 100 µM
[20]
  TGI: > 100 µM
[21]
  TGI: > 100 µM
[22]
  TGI: > 100 µM
[24]
  TGI: > 100 µM
[56]
  TGI: > 100 µM
[25]
  TGI: > 100 µM
[26]
  TGI: > 100 µM
[27]
  TGI: > 100 µM
[28]
  TGI: > 100 µM
[29]
  TGI: > 100 µM
[30]
  TGI: > 100 µM
[32]
  TGI: > 100 µM
[57]
  TGI: > 100 µM
[33]
  TGI: > 100 µM
[34]
  TGI: > 100 µM
[35]
  TGI: > 100 µM
[36]
  TGI: > 100 µM
[37]
  TGI: > 100 µM
[38]
  TGI: > 100 µM
[39]
  TGI: > 100 µM
[40]
  TGI: > 100 µM
[41]
  TGI: > 100 µM
[42]
  TGI: > 100 µM
[43]
  TGI: > 100 µM
[44]
  TGI: > 100 µM
[45]
  TGI: > 100 µM
[46]
  TGI: > 100 µM
[47]
  TGI: > 100 µM
[48]
  TGI: > 100 µM
[58]
  TGI: > 100 µM
[49]
  TGI: > 100 µM
[51]
  TGI: > 100 µM
[52]
  TGI: > 100 µM
[53]
  TGI: > 100 µM
[54]
  TGI: > 100 µM
[55]
  TGI: > 100 µM

## Cn1nc(-c2cccs2)cc1/N=C(\N)C(C)(C#N)Cc1ccccc1 (centres undefined)
[1]
  GI50: 16.3 µM
  TGI: 39.4 µM
[2]
  GI50: 26.7 µM
  TGI: 80.7 µM
[3]
  GI50: 18.4 µM
  TGI: 37.4 µM
[4]
  GI50: 27.3 µM
  TGI: 91.6 µM
[5]
  GI50: 23.3 µM
  TGI: 53.3 µM
[6]
  GI50: 38.7 µM
  TGI: > 100 µM
[8]
  GI50: 29.3 µM
  TGI: > 100 µM
[9]
  GI50: 56.1 µM
  TGI: > 100 µM
[10]
  GI50: 20.4 µM
  TGI: 58.1 µM
[11]
  GI50: 49.3 µM
  TGI: 90.3 µM
[12]
  GI50: 33.3 µM
  TGI: > 100 µM
[14]
  GI50: 21.9 µM
  TGI: 58.3 µM
[15]
  GI50: 27.2 µM
  TGI: > 100 µM
[16]
  GI50: 23.7 µM
  TGI: 49.5 µM
[17]
  GI50: 45.2 µM
  TGI: > 100 µM
[18]
  GI50: 35.4 µM
  TGI: > 100 µM
[19]
  GI50: 39.7 µM
  TGI: > 100 µM
[20]
  GI50: 46.4 µM
  TGI: > 100 µM
[21]
  GI50: 47.6 µM
  TGI: > 100 µM
[22]
  GI50: 18.3 µM
  TGI: 58.5 µM
[23]
  GI50: 63.7 µM
  TGI: > 100 µM
[24]
  GI50: 20.7 µM
  TGI: 48.4 µM
[25]
  GI50: 31.5 µM
  TGI: > 100 µM
[26]
  GI50: 36.9 µM
  TGI: > 100 µM
[27]
  GI50: 29 µM
  TGI: 93.7 µM
[28]
  GI50: 67.1 µM
  TGI: > 100 µM
[29]
  GI50: 22.8 µM
  TGI: 49.6 µM
[31]
  GI50: 32.4 µM
  TGI: 90.4 µM
[32]
  GI50: 28.1 µM
  TGI: > 100 µM
[57]
  GI50: 47.4 µM
  TGI: > 100 µM
[33]
  GI50: 23.4 µM
  TGI: 57.1 µM
[34]
  GI50: 32.7 µM
  TGI: > 100 µM
[35]
  GI50: 32 µM
  TGI: 71.8 µM
[36]
  GI50: 29.9 µM
  TGI: > 100 µM
[37]
  GI50: 34.2 µM
  TGI: > 100 µM
[38]
  GI50: 44.8 µM
  TGI: > 100 µM
[39]
  GI50: 37.6 µM
  TGI: 77.1 µM
[40]
  GI50: 27.7 µM
  TGI: 53.9 µM
[41]
  GI50: 26.5 µM
  TGI: 59.5 µM
[42]
  GI50: 31.6 µM
  TGI: 75.8 µM
[43]
  GI50: 15.5 µM
  TGI: 46.5 µM
[44]
  GI50: 54.2 µM
  TGI: > 100 µM
[45]
  GI50: 62.7 µM
  TGI: > 100 µM
[46]
  GI50: 37.1 µM
  TGI: 98.7 µM
[47]
  GI50: 25.7 µM
  TGI: 62.2 µM
[48]
  GI50: 44.1 µM
  TGI: > 100 µM
[58]
  GI50: 70.3 µM
  TGI: > 100 µM
[49]
  GI50: 26.9 µM
  TGI: 75.7 µM
[50]
  GI50: 22.9 µM
  TGI: 60.8 µM
[52]
  GI50: 24.8 µM
  TGI: 79.3 µM
[53]
  GI50: 32 µM
  TGI: 64.7 µM
[54]
  GI50: 21.9 µM
  TGI: 52.7 µM
[55]
  GI50: 39.9 µM
  TGI: > 100 µM
